In ChEMBL document CHEMBL4138086, “Design and synthesis of bis(indolyl)ketohydrazide-hydrazones: Identification of potent and selective novel tubulin inhibitors” (Eur J Med Chem, 2017):
Activity calls are given as the source filed them. The rule behind the calls is not given here.

What was measured:
BT-474 [1] = test: Cytotoxicity against human BT474 cells assessed as cell survival at 10 uM after 48 hrs by MTT assay relative to control; format: functional; settings: BT-474, 48 h, read-out: Survival
Jurkat [2] = test: Cytotoxicity against human Jurkat cells assessed as cell survival at 10 uM after 48 hrs by MTT assay relative to control; format: functional; settings: read-out: Survival
HCT-116 [3] = test: Cytotoxicity against human HCT116 cells assessed as cell survival at 10 uM after 48 hrs by MTT assay relative to control; format: functional; settings: HCT-116, 48 h, read-out: Survival
MCF7 [4] = test: Cytotoxicity against human MCF7 cells assessed as cell survival at 10 uM after 48 hrs by MTT assay relative to control; format: functional; settings: MCF7, 48 h, read-out: Survival
MDA-MB-231 [5] = test: Cytotoxicity against human MDA-MB-231 cells assessed as cell survival at 10 uM after 48 hrs by MTT assay relative to control; format: functional; settings: MDA-MB-231, 48 h, read-out: Survival
MCF7 [6] = test: Cytotoxicity against human MCF7 cells assessed as reduction in cell survival after 48 hrs by MTT assay; format: functional, cell-based; settings: MCF7, 48 h
DU-145 = test: Cytotoxicity against human DU145 cells assessed as reduction in cell viability; format: functional, cell-based
P388 = test: Cytotoxicity against mouse P388 cells assessed as reduction in cell viability; format: functional, cell-based
Jurkat [7] = test: Cytotoxicity against human Jurkat cells assessed as reduction in cell survival after 48 hrs by MTT assay; format: functional, cell-based
MDA-MB-231 [8] = test: Cytotoxicity against human MDA-MB-231 cells assessed as reduction in cell survival after 48 hrs by MTT assay; format: functional, cell-based; settings: MDA-MB-231, 48 h
BT-474 [9] = test: Cytotoxicity against human BT474 cells assessed as reduction in cell survival after 48 hrs by MTT assay; format: functional, cell-based; settings: BT-474, 48 h
[10] = target: Receptor tyrosine-protein kinase erbB-2 (Homo sapiens, UniProt P04626); test: Inhibition of c-erbbeta2 (unknown origin)
Receptor tyrosine-protein kinase erbB-2, sequence (P04626 whole entry): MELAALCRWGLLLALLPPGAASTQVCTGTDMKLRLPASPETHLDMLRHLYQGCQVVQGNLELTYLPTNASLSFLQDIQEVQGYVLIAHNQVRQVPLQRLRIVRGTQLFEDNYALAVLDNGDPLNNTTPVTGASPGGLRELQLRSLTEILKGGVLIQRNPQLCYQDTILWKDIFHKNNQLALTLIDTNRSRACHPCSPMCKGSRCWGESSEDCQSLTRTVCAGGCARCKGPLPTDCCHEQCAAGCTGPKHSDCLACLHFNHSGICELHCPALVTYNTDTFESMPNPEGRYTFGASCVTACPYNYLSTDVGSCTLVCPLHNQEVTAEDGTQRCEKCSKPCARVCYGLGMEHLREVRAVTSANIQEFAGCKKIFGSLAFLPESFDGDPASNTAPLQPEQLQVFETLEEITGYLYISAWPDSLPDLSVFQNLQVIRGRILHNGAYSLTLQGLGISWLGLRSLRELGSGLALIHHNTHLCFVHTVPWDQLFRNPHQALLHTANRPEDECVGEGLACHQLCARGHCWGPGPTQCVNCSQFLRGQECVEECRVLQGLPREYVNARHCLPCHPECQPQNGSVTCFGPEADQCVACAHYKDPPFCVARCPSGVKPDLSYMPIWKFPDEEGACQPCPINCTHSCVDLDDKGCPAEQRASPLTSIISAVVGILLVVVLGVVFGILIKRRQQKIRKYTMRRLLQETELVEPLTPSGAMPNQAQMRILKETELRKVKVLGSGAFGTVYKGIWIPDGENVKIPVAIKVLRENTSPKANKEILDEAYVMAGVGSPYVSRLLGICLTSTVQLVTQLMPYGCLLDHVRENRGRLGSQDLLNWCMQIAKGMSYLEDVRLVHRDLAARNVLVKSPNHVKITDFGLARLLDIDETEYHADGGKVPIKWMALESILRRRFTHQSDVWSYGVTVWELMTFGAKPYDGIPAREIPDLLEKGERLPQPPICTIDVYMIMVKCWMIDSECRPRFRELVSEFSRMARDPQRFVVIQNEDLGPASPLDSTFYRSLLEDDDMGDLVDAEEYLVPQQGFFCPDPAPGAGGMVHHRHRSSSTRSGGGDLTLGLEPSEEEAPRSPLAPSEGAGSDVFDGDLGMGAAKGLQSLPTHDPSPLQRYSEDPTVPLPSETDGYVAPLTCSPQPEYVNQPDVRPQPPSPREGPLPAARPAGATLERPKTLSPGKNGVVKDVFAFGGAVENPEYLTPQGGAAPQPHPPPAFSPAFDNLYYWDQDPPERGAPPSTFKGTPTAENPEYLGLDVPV

[11] = target: Cyclin-dependent kinase 4 (Homo sapiens, UniProt P11802); test: Inhibition of CDK4 (unknown origin)
Cyclin-dependent kinase 4, sequence (P11802 whole entry): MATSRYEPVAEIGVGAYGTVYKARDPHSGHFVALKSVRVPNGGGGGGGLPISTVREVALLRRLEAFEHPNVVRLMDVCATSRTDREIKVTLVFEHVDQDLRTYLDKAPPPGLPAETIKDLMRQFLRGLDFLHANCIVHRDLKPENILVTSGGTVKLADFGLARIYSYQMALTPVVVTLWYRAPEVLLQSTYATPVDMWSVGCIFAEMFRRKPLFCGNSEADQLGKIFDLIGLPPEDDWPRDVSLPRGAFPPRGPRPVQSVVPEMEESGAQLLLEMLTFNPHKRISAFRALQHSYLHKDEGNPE

HCT-116 [12] = test: Toxicity in human HCT116 cells at 20 uM after 40 hrs by LDH assay; format: cell-based; settings: hct-116, 40 h
Jurkat [13] = test: Induction of apoptosis in human Jurkat cells increase in caspase 3/7 activity at 1 uM measured up to 180 mins by fluorescence assay relative to control; format: functional
Jurkat [14] = test: Toxicity in human Jurkat cells at 20 uM after 40 hrs by LDH assay; format: cell-based
BT-474 [15] = test: Toxicity in human BT474 cells at 20 uM after 40 hrs by LDH assay; format: cell-based; settings: bt-474, 40 h
HCT-116 [16] = test: Cytotoxicity against human HCT116 cells assessed as reduction in cell survival after 48 hrs by MTT assay; format: functional, cell-based; settings: HCT-116, 48 h
Sus scrofa [17] = species on record: Sus scrofa; test: (§1) Inhibition of porcine brain tubulin polymerization incubated for 5 mins by fluorimetry
[18] = as §1; parameters: species or system Sus scrofa
MCF7 [19] = test: Toxicity in human MCF7 cells at 20 uM after 40 hrs by LDH assay; format: cell-based; settings: mcf7, 40 h
Capra hircus = species on record: Capra hircus; test: Inhibition of colchicine binding to goat brain tubulin pre-incubated for 20 mins before colchine addition and measured after 45 mins by fluorescence based assay
MDA-MB-231 [20] = test: Toxicity in human MDA-MB-231 cells at 20 uM after 40 hrs by LDH assay; format: cell-based; settings: mda-mb-231, 40 h
Sus scrofa [21] = species on record: Sus scrofa; test: Inhibition of porcine brain tubulin polymerization at 0.6 uM incubated for 5 mins by fluorimetry
MCF7 [22] = test: Cell cycle arrest in human MCF7 cells assessed as G2/M phase accumulation at 3 uM after […] by propidium iodide staining based flow cytometry; format: functional
A549 = test: Cytotoxicity against human A549 cells assessed as reduction in cell viability; format: functional, cell-based
HCT-8 = test: Cytotoxicity against human HCT8 cells assessed as reduction in cell viability; format: functional, cell-based
MDA-MB-231 [23] = test: Cytotoxicity against human MDA-MB-231 cells assessed as reduction in cell viability; format: functional, cell-based
Sus scrofa [24] = species on record: Sus scrofa; test: Inhibition of porcine brain tubulin polymerization at 3.2 uM incubated for 5 mins by fluorimetry

Row | SMILES | viability at 10 µM (BT-474 [1]) [%] | viability at 10 µM (Jurkat [2]) [%] | viability at 10 µM (HCT-116 [3]) [%] | viability at 10 µM (MCF7 [4]) [%] | viability at 10 µM (MDA-MB-231 [5]) [%] | also measured
1 | COc1cc(/C=N/NC(=O)C(=O)c2c[nH]c3ccccc23)cc(OC)c1OC | 101 | 69.6 | 99.1 | 110 | 103 | 
2 | O=C(N/N=C/c1c[nH]c2cc(F)ccc12)C(=O)c1c[nH]c2ccc(Br)cc12 | 94.8 | 95.8 | 84.2 | 97.5 | 111 | 
3 | O=C(N/N=C/c1ccncc1)C(=O)c1cn(Cc2ccc(Cl)cc2)c2ccccc12 | 78.7 | 66.7 | 69.1 | 82.2 | 71.2 | 
4 | COc1ccc(/C=N/NC(=O)C(=O)c2c[nH]c3ccccc23)cc1OC | 103 | 78.9 | 92.8 | 99.8 | 94.6 | 
5 | COc1ccc(-c2[nH]c3ccccc3c2/C=N/NC(=O)C(=O)c2c[nH]c3ccccc23)cc1 | 94.2 | 81.6 | 71.8 | 107 | 98.8 | 
6 | O=C(Nc1ccncc1)C(=O)c1cn(Cc2ccc(Cl)cc2)c2ccccc12 [INDIBULIN] |  |  |  |  |  | IC50 (MCF7 [6]): 1.1 µM
7 | COc1ccc2c(c1)c(/C=N/NC(=O)C(=O)c1c[nH]c3ccc(Br)cc13)cn2Cc1ccc(Cl)cc1 | 99.1 | 46.6 | 86.1 | 96.1 | 103 | 
8 | O=C(N/C=C/c1c[nH]c2ccccc12)C(=O)c1c[nH]c2ccccc12 |  |  |  |  |  | IC50 (DU-145): 7.6 µM
9 | O=C(N/C=C/c1c[nH]c2cc(Br)ccc12)C(=O)c1c[nH]c2ccccc12 |  |  |  |  |  | IC50 (DU-145): 7.6 µM
10 | O=C(N/N=C/c1cn(Cc2ccc(Cl)cc2)c2ccc(Br)cc12)C(=O)c1c[nH]c2ccccc12 | 94.7 | 93.2 | 72.6 | 107 | 88.8 | 
11 | COc1ccc(Cn2cc(/C=N/NC(=O)C(=O)c3c[nH]c4ccc(Br)cc34)c3cc(OC)ccc32)cc1 | 91.1 | 81.9 | 65.7 | 112 | 102 | 
12 | Brc1ccc2c(-c3c[nH]c(-c4c[nH]c5ccccc45)n3)c[nH]c2c1 [NORTOPSENTIN C] |  |  |  |  |  | IC50 (P388): 4.5 to 20.7 µM
13 | COc1cccc2c1C(=O)c1c(O)c3c(c(O)c1C2=O)C[C@@](O)(C(=O)CO)C[C@@H]3O[C@H]1C[C@H](N)[C@H](O)[C@H](C)O1 [DOXORUBICIN] | 17.6 | 21 | 25 | 27 | 22.5 | IC50 (Jurkat [7]): 0.26 µM; IC50 (MDA-MB-231 [8]): 0.55 µM; IC50 (BT-474 [9]): 0.3 µM
14 | COc1ccc(/C=N/NC(=O)C(=O)c2c[nH]c3ccccc23)cc1 | 97.5 | 61.9 | 101 | 106 | 102 | 
15 | COc1ccc2c(/C=N/NC(=O)C(=O)c3c[nH]c4ccc(Br)cc34)c[nH]c2c1 | 92 | 74.1 | 71.4 | 91.4 | 112 | 
16 | O=C1N=C(C(=O)c2c[nH]c3ccccc23)N/C1=C\c1c[nH]c2cc(O)ccc12 |  |  |  |  |  | IC50 [10]: 7.4 µM; IC50 [11]: 12.5 µM
17 | O=C(N/N=C/c1c[nH]c2ccc(F)cc12)C(=O)c1c[nH]c2ccccc12 | 112 | 56.7 | 85.1 | 105 | 102 | 
18 | O=C(N/N=C/c1c[nH]c2ccccc12)C(=O)c1cn(Cc2ccc(Cl)cc2)c2ccccc12 | 22.5 | 20.6 | 13.3 | 15 | 17.1 | Activity (HCT-116 [12]): 20 to 25%; fold change (FC) (Jurkat [13]): 2 - 5; IC50 (MCF7 [6]): 0.8 µM; Activity (Jurkat [14]): 20 to 25%; IC50 (Jurkat [7]): 0.22 µM; IC50 (MDA-MB-231 [8]): 0.5 µM; Activity (BT-474 [15]): 20 to 25%; IC50 (HCT-116 [16]): 0.15 µM; inhibition (Sus scrofa [17]): Dose-dependent effect; IC50 [18]: 0.6 µM; Activity (MCF7 [19]): 20 to 25%; inhibition (Capra hircus): Dose-dependent effect; Activity (MDA-MB-231 [20]): 20 to 25%; IC50 (BT-474 [9]): 2.1 µM; inhibition (Sus scrofa [21]): 50%; Activity (MCF7 [22]): Active
19 | COc1cccc(/C=N/NC(=O)C(=O)c2c[nH]c3ccccc23)c1 | 95.1 | 59.7 | 72.4 | 96.8 | 97.2 | 
20 | O=C(N/N=C/c1c[nH]c2cc(F)ccc12)C(=O)c1c[nH]c2ccccc12 | 88.2 | 69.9 | 104 | 40.2 | 106 | 
21 | O=C(N/C=C/c1c[nH]c2ccc(Br)cc12)C(=O)c1c[nH]c2c(O)cccc12 |  |  |  |  |  | IC50 (DU-145): 7.6 µM
22 | O=C(N/N=C/c1c[nH]c2ccc(Br)cc12)C(=O)c1c[nH]c2ccccc12 | 82.4 | 25.5 | 26.3 | 35 | 34 | fold change (FC) (Jurkat [13]): 2 - 5; IC50 (MCF7 [6]): 3.3 µM; IC50 (Jurkat [7]): 5 µM; IC50 (MDA-MB-231 [8]): 5.6 µM; IC50 (HCT-116 [16]): 6.6 µM
23 | O=C(N/N=C/c1c[nH]c2ccccc12)C(=O)c1c[nH]c2ccccc12 | 83 | 33.6 | 88.4 | 99.2 | 98.6 | 
24 | COc1ccc2c(/C=N/NC(=O)C(=O)c3c[nH]c4ccccc34)c[nH]c2c1 | 95.6 | 52.1 | 38.8 | 34.6 | 103 | IC50 (MCF7 [6]): 6.1 µM; IC50 (Jurkat [7]): 10 µM; IC50 (HCT-116 [16]): 2.5 µM
25 | CN1CC(c2c[nH]c3cc(Br)ccc23)N(C)CC1c1c[nH]c2cc(Br)ccc12 (centres undefined) |  |  |  |  |  | IC50 (P388): 15 µM; IC50 (A549): 1 to 10 µM; IC50 (HCT-8): 1 to 10 µM; IC50 (MDA-MB-231 [23]): 1 to 10 µM
26 | O=C(N/N=C/c1c[nH]c2cc(Br)ccc12)C(=O)c1c[nH]c2ccccc12 | 86.8 | 75.4 | 94.5 | 92.7 | 95.1 | 
27 | Brc1ccc2c(-c3c[nH]c(-c4c[nH]c5cc(Br)ccc45)n3)c[nH]c2c1 [NORTOPSENTIN A] |  |  |  |  |  | IC50 (P388): 4.5 to 20.7 µM
28 | COc1ccc2[nH]cc(/C=N/NC(=O)C(=O)c3c[nH]c4ccccc34)c2c1 | 20.3 | 19.3 | 17.6 | 17.2 | 21.6 | fold change (FC) (Jurkat [13]): 2 - 5; IC50 (MCF7 [6]): 1.8 µM; IC50 (Jurkat [7]): 0.5 µM; IC50 (MDA-MB-231 [8]): 1.7 µM; IC50 (HCT-116 [16]): 0.4 µM; IC50 (BT-474 [9]): 1.1 µM
29 | COc1ccc2[nH]cc(/C=N/NC(=O)C(=O)c3cn(Cc4ccc(Cl)cc4)c4ccccc34)c2c1 | 21.2 | 36.1 | 38.2 | 33.7 | 29.4 | Activity (HCT-116 [12]): 20 to 25%; fold change (FC) (Jurkat [13]): 2 - 5; IC50 (MCF7 [6]): 3.8 µM; Activity (Jurkat [14]): 20 to 25%; IC50 (Jurkat [7]): 3.6 µM; IC50 (MDA-MB-231 [8]): 2.9 µM; Activity (BT-474 [15]): 20 to 25%; IC50 (HCT-116 [16]): 4.2 µM; inhibition (Sus scrofa [17]): Dose-dependent effect; Activity (MCF7 [19]): 20 to 25%; inhibition (Sus scrofa [24]): 50%; Activity (MDA-MB-231 [20]): 20 to 25%; IC50 (BT-474 [9]): 2.7 µM
30 | Cn1c(-c2cn(C)c3ccccc23)cnc1-c1cn(C)c2cc(Br)ccc12 [N-METHYL NORTOPSENTIN B] |  |  |  |  |  | IC50 (P388): 4.5 to 20.7 µM
